Source: ChEMBL document CHEMBL4385604, “Identification of Pyrrolo[2,3- d]pyrimidine-Based Derivatives as Potent and Orally Effective Fms-like Tyrosine Receptor Kinase 3 (FLT3) Inhibitors for Treating Acute Myelogenous Leukemia” (J Med Chem, 2019)
pIC50, pKd: −log10 of the molar value.

Assays:
[1] = molecular target: Receptor-type tyrosine-protein kinase FLT3 (Homo sapiens, UniProt P36888, D835Y); experiment: Binding affinity to human partial length FLT3 D835Y mutant (Q580 to Y969 residues) expressed in Escherichia coli after 1 hr by qPCR analysis
MV4-11 [2] = experiment: Cell cycle arrest in human MV4-11 cells assessed as accumulation at G0/G1 phase at 3 nM after 24 hrs by propidium iodide staining-based flow cytometric analysis (reference value: 48.76%); assay type: functional
[3] = molecular target: Receptor-type tyrosine-protein kinase FLT3 (Homo sapiens, UniProt P36888, N841I); experiment: Binding affinity to human partial length FLT3 N841I mutant (V592 to Y969 residues) expressed in Escherichia coli after 1 hr by qPCR analysis
MOLM-13 [4] = experiment: Induction of apoptosis in human MOLM13 cells assessed as necrotic cells at 1 uM after 48 hrs by Annexin V/propidium iodide staining based flow cytometry (reference value: 0.29%); assay type: functional
MV4-11 [5] = experiment: cells; conditions: Homo sapiens, MV4-11, 72 h
Description: Antiproliferative activity against human MV4-11 cells harboring FLT3-ITD mutant measured after 72 hrs by MTT assay

MOLM-13 [6] = experiment: Induction of apoptosis in human MOLM13 cells assessed as early apoptotic cells at 10 uM after 48 hrs by Annexin V/propidium iodide staining based flow cytometry (reference value: 5.97%); assay type: functional
MV4-11 [7] = experiment: Cell cycle arrest in human MV4-11 cells assessed as accumulation at G0/G1 phase at 30 nM after 24 hrs by propidium iodide staining-based flow cytometric analysis (reference value: 48.76%); assay type: functional
MV4-11 [8] = experiment: Cell cycle arrest in human MV4-11 cells assessed as accumulation at G0/G1 phase at 10 nM after 24 hrs by propidium iodide staining-based flow cytometric analysis (reference value: 48.76%); assay type: functional
MOLM-13 [9] = experiment: Cell cycle arrest in human MOLM13 cells assessed as accumulation at G2/M phase at 1 nM after 24 hrs by propidium iodide staining-based flow cytometric analysis (reference value: 13.52%); assay type: functional
MOLM-13 [10] = experiment: Antitumour activity against human MOLM13 cells xenografted in NOD/SCID mouse assessed as tumour growth inhibition at 1 mg/kg, po qd for 10 days measured every two days during compound dosing by caliper method relative to control; assay type: functional; conditions: MOLM-13, po, read-out: TGI
MOLM-13 [11] = experiment: Induction of apoptosis in human MOLM13 cells assessed as early apoptotic cells at 10 nM after 48 hrs by Annexin V/propidium iodide staining based flow cytometry (reference value: 5.97%); assay type: functional
MV4-11 [12] = experiment: Induction of apoptosis in human MV4-11 cells assessed as late apoptotic cells at 10 uM after 48 hrs by Annexin V/propidium iodide staining based flow cytometry (reference value: 2.83%); assay type: functional
BaF3 [13] = experiment: cells; conditions: Mus musculus, BaF3, 72 h
Description: Antiproliferative activity against mouse BAF3 cells harboring FLT3-ITD mutant measured after 72 hrs by MTT assay

MOLM-13 [14] = experiment: Cell cycle arrest in human MOLM13 cells assessed as accumulation at G0/G1 phase at 1 nM after 24 hrs by propidium iodide staining-based flow cytometric analysis (reference value: 44.53%); assay type: functional
MOLM-13 [15] = experiment: cells; conditions: Homo sapiens, MOLM-13, 72 h
Description: Antiproliferative activity against human MOLM13 cells harboring FLT3-ITD mutant measured after 72 hrs by MTT assay

MV4-11 [16] = experiment: Induction of apoptosis in human MV4-11 cells assessed as late apoptotic cells at 1 nM after 48 hrs by Annexin V/propidium iodide staining based flow cytometry (reference value: 2.83%); assay type: functional
MV4-11 [17] = experiment: Cell cycle arrest in human MV4-11 cells assessed as accumulation at G2/M phase at 1 nM after 24 hrs by propidium iodide staining-based flow cytometric analysis (reference value: 21.12%); assay type: functional
Homo sapiens = species: Homo sapiens; experiment: Inhibition of MAPK in human MOLM13 cells assessed as ratio of phosphorylated ERK to beta-actin level at 30 nM after 2 hrs by Western blot analysis relative to control; assay type: cell-based
MOLM-13 [18] = experiment: Induction of apoptosis in human MOLM13 cells after 48 hrs by Annexin V/propidium iodide staining-based flow cytometry; assay type: functional, cell-based
BaF3 [19] = experiment: cells; conditions: Mus musculus, BaF3, 72 h; remark: listed apart in the source
Description: Antiproliferative activity against mouse BAF3 cells harboring FLT3-ITD-F691L mutant measured after 72 hrs by MTT assay

[20] = molecular target: Receptor-type tyrosine-protein kinase FLT3 (Homo sapiens) (UniProt P36888); experiment: Inhibition of FLT3 autophosphorylation in human MV4-11 cells assessed as ratio of phosphorylated FLT3 to beta-actin level at 100 nM after 2 hrs by Western blot analysis relative to control; assay type: cell-based
MOLM-13 [21] = experiment: Induction of apoptosis in human MOLM13 cells assessed as viable cells at 100 nM after 48 hrs by Annexin V/propidium iodide staining based flow cytometry (reference value: 88.2%); assay type: functional; conditions: MOLM-13, 48 h, read-out: Activity
MV4-11 [22] = experiment: Induction of apoptosis in human MV4-11 cells assessed as viable cells at 10 uM after 48 hrs by Annexin V/propidium iodide staining based flow cytometry (reference value: 94.4%); assay type: functional; conditions: MV4-11, 48 h, read-out: Activity
MOLM-13 [23] = experiment: Induction of apoptosis in human MOLM13 cells assessed as early apoptotic cells at 1 uM after 48 hrs by Annexin V/propidium iodide staining based flow cytometry (reference value: 5.97%); assay type: functional
MV4-11 [24] = experiment: Induction of apoptosis in human MV4-11 cells assessed as early apoptotic cells at 10 uM after 48 hrs by Annexin V/propidium iodide staining based flow cytometry (reference value: 2.76%); assay type: functional
MV4-11 [25] = experiment: Induction of apoptosis in human MV4-11 cells assessed as late apoptotic cells at 1 uM after 48 hrs by Annexin V/propidium iodide staining based flow cytometry (reference value: 2.83%); assay type: functional
[26] = system: Receptor-type tyrosine-protein kinase FLT3 (Homo sapiens), P36888 [UNDEFINED MUTATION]; experiment: Inhibition of FLT3 ITD mutant in human MV4-11 cells assessed as ratio of phosphorylated STAT5 to beta-actin level at 100 nM after 2 hrs by Western blot analysis relative to control; assay type: cell-based
MV4-11 [27] = experiment: Cell cycle arrest in human MV4-11 cells assessed as accumulation at G2/M phase at 10 nM after 24 hrs by propidium iodide staining-based flow cytometric analysis (reference value: 21.12%); assay type: functional

What does the source list for `C=CCn1cc(-c2ccc(NC(=O)Nc3cc(C(C)(C)C)on3)cc2)c2c(N)ncnc21`?
pKd [1]: 8.11; Activity (MV4-11 [2]): 87.11%; pKd [3]: 8.63; Activity (MOLM-13 [4]): 0.62%; pIC50 (MV4-11 [5]): 10.05; Activity (MOLM-13 [6]): 0.61%; Activity (MV4-11 [7]): 96.25%; Activity (MV4-11 [8]): 95.74%; Activity (MOLM-13 [9]): 11%; inhibition in vivo at 1 mg/kg (MOLM-13 [10]): 77.9%; Activity (MOLM-13 [11]): 15.5%; Activity (MV4-11 [12]): 66.4%; pIC50 (BaF3 [13]): 9.04; Activity (MOLM-13 [14]): 53.77%; pIC50 (MOLM-13 [15]): 10.66; Activity (MV4-11 [16]): 4.62%; Activity (MV4-11 [17]): 16.55%; fold change (FC) (Homo sapiens): 0.1; Activity (MOLM-13 [18]): Dose-dependent effect; pIC50 (BaF3 [19]): 7.89; fold change (FC) [20]: 0; viability at 0.1 µM (MOLM-13 [21]): 62.8%; viability at 10 µM (MV4-11 [22]): 18.1%; Activity (MOLM-13 [23]): 23.5%; Activity (MV4-11 [24]): 13.4%; Activity (MV4-11 [25]): 24.8%; fold change (FC) [26]: 0; Activity (MV4-11 [27]): 2.2%
